Assay results from US11565005B2, “Dota-hapten compositions for anti-dota/anti-tumor antigen bispecific antibody pretargeted radioimmunotherapy” (MEMORIAL SLOAN KETTERING CANCER CENTER, priority 2017, dated 2023).
Where “and” joins values, the source holds several entries; their conditions need not be identical. Equal values may be shown once. Read-outs that look alike come from different tables or passages of the source.

Legend:
[1] = Blood half-life and biodistribution of [^111In]Proteus-DOTA in tumor-free nude mice; type: in vivo, athymic nu/nu female mice
Procedure: The blood half-life of surrogate [^111In] Proteus-DOTA was determined. Dotted line indicates nonlinear two phase decay analysis used to calculate half-life (R^2=0.913). Data is presented as mean ±SD.
(n=5 mice; given i.v.) in tumor-free healthy athymic nu/nu female mice.
Preparation of [^111In]Proteus-DOTA. Using similar radiochemical methods, [^111In]Proteus-DOTA was prepared from [^111In]indium chloride (Nuclear Diagnostic Products, Inc., Rockaway, N.J.; 249 MBq [6.73 mCi]) and 150 μL of 10 mg/mL Proteus-DOTA (1.5 mg; 1.11 μmoles). The [^111In]Proteus-DOTA yield was >98% and the final Specific Activity was 162.8 GBq/g [4.4 Ci/g] or 2.28 E5 GBq/mol [6160 Ci/mol]. This preparation was used for pharmacokinetic studies. Prior to administration into mice, the [^111In]Proteus-DOTA was purified using a Strata™-X cartridge (33 μm Polymeric Reversed Phase C-18 30 mg/l mL #8B-S100-TAK, Phenomenex® Inc., Torrance, Calif. USA) as described for [^68Ga]Proteus-DOTA and the radiochemical purity was verified to be >98% either using an in vitro binding assay with excess BsAb or by analytical reverse-phase HPLC coupled with radiodetection.
A biodistribution assay conducted at 240 min p.i.

[2] = tested on: GD2-expressing IMR-32 human neuroblastoma xenografts; assay: Anti-GD2-DOTA-PRIT pretargeting biodistribution, ^225Ac- vs ^177Lu-DOTA-Bn; type: in vivo, athymic nude mice; conditions: pretargeted with hu3F8-C825 + clearing agent, 24 hours post-injection
Procedure: Female athymic nude mice bearing subcutaneous GD2-expressing IMR-32 human neuroblastoma xenografts in the right-hand flank were injected intravenously (i.v.) via the lateral tail-vein with three separate reagents: (1) hu3F8-C825 (0.25 mg, 1.19 nmol) [t=−28 hours (h)], followed by (2) 0.1 mg 500 kD-dextran-DOTA-Bn(Y) (0.2 nmol of CA; 146 DOTA-Bn(Y)/mol of dextran, 29 nmol of DOTA-Bn(Y)) [t=−4 h] and (3) an equimolar amount of either ^177Lu- or ^225Ac-DOTA-Bn (50 μCi and 100 μCi of ^177Lu and ^225Ac, respectively, 8-10 pmol) at [t=0 h]. Mice were sacrificed at 24 h post-injection of radiotracer for biodistribution assay of tumor and select normal tissues. The average tumor masses were as follows (presented as average ±SD): 0.77±0.62 g and 0.49±0.28 g for ^177Lu and ^225Ac cohorts, respectively. Activity concentration data are expressed as the mean % ID/g standard error of the mean (SEM). Errors for the tumor-to-tissue ratios are calculated as the geometric mean of the standard errors of the mean. Student's t-test p-values highlighted in bold are considered significant (p<0.05).

SW1222 tumor = assay: In vivo competition study: maximum tumor uptake of pretargeted DOTA-hapten; parameters: species or system mice
Procedure: In addition to studies with tracer doses of radiolabeled Proteus-DOTA, the upper limit for absolute tumor uptake of radiolabeled Proteus-DOTA was determined using in vivo competition studies. Biodistribution experiments were conducted 24 h following dosing of groups of tumor bearing mice with wide mass range of Proteus-DOTA spanning 2 orders of magnitude (˜170-33800 pmol), showing maximum tumor uptake (“Bmax”) of ˜60 pmol DOTA-hapten/gram of SW1222 tumor. […] Based on a maximum tumor uptake of pretargeted Proteus-DOTA of 62 pmol per gram of SW1222 tumor, ˜180 nCi of ^225Ac could be localized per gram of tumor at SA that are currently achieved with quantitative RCY.

[3] = tested on: GPA33-expressing SW1222 xenografts; conditions: anti-GPA33-DOTA-PRIT, 10-50 pmol, 24 hours p.i.; cited from earlier work
[4] = target: anti-DOTA-hapten antibody single chain variable fragment C825; conditions: mean ±SD, read-out: Kd (equilibrium dissociation constant) of C825, cited from earlier work
[5] = Dynamic PET imaging and ex vivo biodistribution of [^68Ga]Proteus-DOTA in mice bearing NCI-N87 tumors; parameters: species or system nude mice
Source text: Decay-corrected blood and kidney time-activity curves (TAC) are shown for two individual mice. The blood-TAC for each of the animals was separately curve-fitted to a non-linear two phase decay equation. The (i) percent fast, (ii) half life (slow; minutes), (iii) half-life (fast; minutes), and (iv) R^2 values for mouse 1/mouse 2 were: 46/56, 13.2/13.7, 1.4/0.94, and 0.95/0.99, respectively.
PET Imaging and Biodistribution Studies with […]. […] Nude mice bearing HER2-expressing NCI-N87 human gastric carcinoma subcutaneous xenografts (n=4) were injected with 113-140 μCi ([…]) [^68Ga]Proteus-DOTA and imaged with dynamic positron-emission imaging for […] post-injection (p.i.) (n=2), or with static imaging at 1 h p.i. (n=4). All animals were then sacrificed at 2 hours post injection for ex vivo biodistribution analysis. The list-mode data was histogrammed using the following protocol: 12×10 seconds, 6×30 seconds, 5×60 seconds, 4×300 seconds, 30 min, resulting in […]. Regions-of-interest were drawn around heart (for blood as cardiac outflow) and kidney to determine activity concentrations (as % ID/g).

[6] = biphasic, nonlinear two phase decay, R^2=0.913

For `O=C([O-])CN1CCN(CC(=O)[O-])CCN(CC(=O)NCCOCCOCCOCCOCCNC(=S)Nc2ccc(CC3CN(CC(=O)[O-])CCN(CC(=O)[O-])CCN(CC(=O)[O-])CCN3CC(=O)[O-])cc2)CCN(CC(=O)[O-])CC1.[111In+3].[Lu+3]` (stereo not drawn) [[^111In]Proteus-DOTA], the “kidney retention (percent injected activity per gram of tissue)” value ([1]; 240 min p.i., i.v., n=5, mean ±SD) was 0.96±0.25 % IA/g, the “remaining ^111In-activity in carcass after tissue dissection” value ([1]; 240 min p.i., n=5, mean ±SD) was 0.952±0.162 % ID and the “share of alpha phase of blood clearance” value ([1]; biphasic, nonlinear two phase decay) was 87.7%. The “blood half-life (alpha)” value [1, 6] was 7.49 min and the “blood half-life (beta)” value [1, 6] was 24.8 min.
Compound `Nc1ccc(CC2CN(CC(=O)[O-])CCN(CC(=O)[O-])CCN(CC(=O)[O-])CCN2CC(=O)[O-])cc1.[177Lu+3]` (stereo not drawn) [^177Lu-DOTA-Bn] has a Blood uptake [2] of 0.49±0.09 % ID/g, a kidney uptake [2] of 0.83±0.10 % ID/g and a tumor uptake ([2]; IMR-32 xenograft, n=5) of 10.29±2.87 % ID/g. For the same compound, the maximum tumor uptake (SW1222 tumor; pretargeted, same system, i.v. administered dose of 600 pmol) was roughly 60 pmol/g and the mean tumor uptake [3] was roughly 8 % ID/g.
In the case of `Nc1ccc(CC2CN(CC(=O)[O-])CCN(CC(=O)[O-])CCN(CC(=O)[O-])CCN2CC(=O)[O-])cc1.[86Y+3]` (stereo not drawn) [^86Y-DOTA-Bn], the mean tumor uptake [3] is listed as roughly 8 % ID/g.
For `O=C([O-])CN1CCN(CC(=O)[O-])CCN(CC(=O)NCCOCCOCCOCCOCCNC(=S)Nc2ccc(CC3CN(CC(=O)[O-])CCN(CC(=O)[O-])CCN(CC(=O)[O-])CCN3CC(=O)[O-])cc2)CCN(CC(=O)[O-])CC1.[Lu+3]` (stereo not drawn) [Proteus-DOTA], the “^225Ac that could be localized per gram of tumor” value (SW1222 tumor; based on 62 pmol per gram at currently achieved SA) was roughly 180 nCi and the “maximum tumor uptake ("Bmax")” value (SW1222 tumor; pretargeted, 24 h after dosing, ~170-33800 pmol) was ~60 pmol DOTA-hapten/gram of SW1222 tumor and 62 pmol DOTA-hapten/gram of SW1222 tumor.
In the case of `Nc1ccc(CC2CN(CC(=O)[O-])CCN(CC(=O)O)CCN(CC(=O)[O-])CCN2CC(=O)[O-])cc1.[Lu+3]` (stereo not drawn) [DOTA-Bn complex of Lu, S-2-(4-aminobenzyl)-1,4,7,10-tetraazacyclododecane tetraacetic acid chelate], the Kd ([4]; listed as benzyl-DOTA (Lu) hapten) is given as 10 pM and the Kd [4] is given as 10.8 ± 2.5 pM.
Work on `O=C([O-])CN1CCN(CC(=O)[O-])CCN(CC(=O)NCCOCCOCCOCCOCCNC(=S)Nc2ccc(CC3CN(CC(=O)[O-])CCN(CC(=O)[O-])CCN(CC(=O)[O-])CCN3CC(=O)[O-])cc2)CCN(CC(=O)[O-])CC1.[68Ga+3].[Lu+3]` (stereo not drawn) [[^68Ga]Proteus-DOTA] yielded a Blood activity concentration ([5]; 2 h p.i., n = 4) of 2.29 ± 0.31 % ID/g, a Bone activity concentration ([5]; 2 h p.i., n = 4) of 0.39 ± 0.07 % ID/g and a Heart activity concentration ([5]; 2 h p.i., n = 4) of 0.75 ± 0.10 % ID/g. For the same compound, the Kidneys activity concentration ([5]; 2 h p.i., n = 4) was 1.53 ± 0.50 % ID/g, the “Large Intestine activity concentration” value ([5]; 2 h p.i., n = 4) was 0.44 ± 0.10 % ID/g and the Liver activity concentration ([5]; 2 h p.i., n = 4) was 1.19 ± 0.08 % ID/g. The Lungs activity concentration ([5]; 2 h p.i., n = 4) was 1.00 ± 0.13 % ID/g, the Muscle activity concentration ([5]; 2 h p.i., n = 4) was 0.17 ± 0.03 % ID/g and the “Small Intestine activity concentration” value ([5]; 2 h p.i., n = 4) was 0.59 ± 0.21 % ID/g. It also gave a Spleen activity concentration ([5]; 2 h p.i., n = 4) of 0.56 ± 0.13 % ID/g, a Stomach activity concentration ([5]; 2 h p.i., n = 4) of 0.19 ± 0.05 % ID/g and a Tumor activity concentration ([5]; NCI-N87 tumor, 2 h p.i., n = 4) of 0.65 ± 0.08 % ID/g. The “blood half life (slow)” value ([5]; mouse 1, two phase decay fit) was 13.2 min, the “blood half-life (fast)” value ([5]; mouse 1, two phase decay fit) was 1.4 min and the “blood time-activity curve, percent fast” value ([5]; mouse 1, two phase decay fit) was 46. For the same compound, the “blood half life (slow)” value ([5]; mouse 2, two phase decay fit) was 13.7 min, the “blood half-life (fast)” value ([5]; mouse 2, two phase decay fit) was 0.94 min and the “blood time-activity curve, percent fast” value ([5]; mouse 2, two phase decay fit) was 56.
